Legend:
Type in all cases: binding
BCL6 [1] = target: BCL6 (Homo sapiens, UniProt P41182); assay: competitive TR-FRET, displacement of FITC-BCoR peptide
BCL6 [2] = target: BCL6 (Homo sapiens, UniProt A5PL18); assay: cryo-EM of the BCL6 filament
BCL6 [3] = target: BCL6 (Homo sapiens, UniProt P41182, E41A); assay: competitive TR-FRET, displacement of FITC-BCoR peptide

Structure (SMILES)	competitive TR-FRET, displacement of FITC-BCoR peptide (BCL6 [1])	EC50 (BCL6 [2])	competitive TR-FRET, displacement of FITC-BCoR peptide (BCL6 [3])
CNC(=O)COc1cc2cc(Nc3nc(N4CCC(C(=O)N(C)C)CC4)ncc3Cl)cc(OC)c2n(C)c1=O [BI-3812]	despite comparable affinity of both BI-3802 and BI-3812 to BCL6 (Extended Data Fig. 8h)	–	–
CNC(=O)COc1cc2cc(Nc3nc(N4C[C@H](C)C[C@H](C)C4)ncc3Cl)ccc2n(C)c1=O [BI-3802]	–	0.064 µM	the E41A substitution did not impair drug binding to BCL6 (Extended Data Fig. 4f)
